The results in this text go back to patent US11370763B2, “Compounds and compositions for treating conditions associated with NLRP activity” (Novartis AG, priority 2017, dated 2022).

Structures are written as SMILES. Read-outs that look alike come from different tables or passages of the source.

The test system of the assay is IL-1β production in PMA-differentiated THP-1 cells. Briefly: IL-1β production in PMA-differentiated THP-1 cells stimulated with gramicidin (hTHP-1 assay containing 2% fetal bovine serum; Procedures 1-3). It is filed as cell-based, human. The settings on record: Homo sapiens, THP-1, hTHP-1 assay containing 2% fetal bovine serum, read-out: hTHP-1 IC50 (Average IC50 of compounds in hTHP-1 assay). An outline of the steps: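 THP-1 cells differentiated with PMA (20 ng/ml, 16-18 h), replated in 2% FBS RPMI (50,000 cells/well), preincubated 1 h with compound (top final 100 μM, 3-fold steps, 0.37% DMSO), then stimulated 2 h with gramicidin (5 μM). Supernatant IL-1β measured by HTRF.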

In the case of `CC(C)c1cc(F)cc(C(C)C)c1CC(=O)N=S(N)(=O)c1ncc(C(C)(C)O)s1` (stereo not shown) [Example 7, 2-(4-Fluoro-2,6-diisopropylphenyl)-N-(5-(2-hydroxypropan-2-yl)thiazole-2-sulfonimidoyl)acetamide], where the note is “class symbols”, the concentration for half-maximal inhibition (IC50) was in the range of 200 to 1000 nM. On the same count and under the same terms, in the case of `CC(C)c1cc(F)cc(C(C)C)c1CC(=O)N=S(=O)(NC(=O)Cc1c(C(C)C)cc(F)cc1C(C)C)c1ncc(C(C)(C)O)s1` (stereo not shown) [Example 10, N,N-(5-(2-hydroxypropan-2-yl)thiazol-2-ylsulfinyl)bis(2-(4-fluoro-2,6-diisopropylphenyl)acetamide)] it was 5000 to 30000 nM; in that of `CNS(=O)(=NC(=O)Cc1c(C(C)C)cc(F)cc1C(C)C)c1ncc(C(C)(C)O)s1` (stereo not shown) [Example 11, 2-(4-Fluoro-2,6-diisopropylphenyl)-N-(5-(2-hydroxypropan-2-yl)-N-methylthiazole-2-sulfonimidoyl)acetamide], 5000 to 30000 nM. As to `CNS(=O)(=NC(=O)Cc1c2c(cc3c1CCC3)CCC2)c1ncc(C(C)(C)O)s1` (stereo not shown) [Example 12, 2-(1,2,3,5,6,7-Hexahydro-s-indacen-4-yl)-N-(5-(2-hydroxypropan-2-yl)-N-methylthiazole-2-sulfonimidoyl)acetamide], the IC50 (given as numeric bound) was > 30000 nM. Take `CC(C)c1cc(C#N)c(F)c(C(C)C)c1CC(=O)N=S(N)(=O)c1sc(C(C)(C)O)cc1F` (stereo not shown) [Example 14, 2-(4-cyano-3-fluoro-2,6-diisopropylphenyl)-N-(3-fluoro-5-(2-hydroxypropan-2-yl)thiophen-2-ylsulfonimidoyl)acetamide]: the IC50 (class symbols) was 8 to 40 nM. For `CC(C)c1cc(F)cc(C2CC2)c1CC(=O)N=S(N)(=O)c1ccc(CN(C)C)cc1` (stereo not shown) [Example 15, 2-(2-cyclopropyl-4-fluoro-6-isopropylphenyl)-N-(4-((dimethylamino)methyl)phenyl-sulfonimidoyl)acetamide], the concentration for half-maximal inhibition (IC50) (class symbols) fell in the range of 1000 to 5000 nM.

Take `CC(C)c1cc(OC(F)F)cc(C(C)C)c1CC(=O)N=S(N)(=O)c1cnc(C(C)(C)O)s1` (stereo not shown) [Example 16, 2-(4-(difluoromethoxy)-2,6-diisopropylphenyl)-N-(2-(2-hydroxypropan-2-yl)thiazol-5-ylsulfonimidoyl)acetamide]: the IC50 (class symbols) lay within 200 to 1000 nM.

On to `CC(C)c1cc(F)cc(C(C)C)c1CC(=O)N=S(N)(=O)c1sc(C(C)(C)O)cc1F` (stereo not shown) [Example 17, 2-(4-fluoro-2,6-diisopropylphenyl)-N-(3-fluoro-5-(2-hydroxypropan-2-yl)thiophen-2-ylsulfonimidoyl)acetamide], for which, under “class symbols”, the IC50 fell in the range of 8 to 40 nM. Regarding `CC(C)c1cc(F)cc(C2CC2)c1CC(=O)N=S(N)(=O)c1sc(C(C)(C)O)cc1F` (stereo not shown) [Example 18, 2-(2-cyclopropyl-4-fluoro-6-isopropylphenyl)-N-(3-fluoro-5-(2-hydroxypropan-2-yl)thiophen-2-ylsulfonimidoyl)acetamide], the half-maximal inhibitory concentration (IC50) (class symbols) was 40 to 200 nM. `CC(C)c1c(F)c(C#N)cc(C2CC2)c1CC(=O)N=S(N)(=O)c1sc(C(C)(C)O)cc1F` (stereo not shown) [Example 19, 2-(4-cyano-6-cyclopropyl-3-fluoro-2-isopropylphenyl)-N-(3-fluoro-5-(2-hydroxypropan-2-yl)thiophen-2-ylsulfonimidoyl)acetamide]: the IC50 (class symbols) was 8 to 40 nM. Still for that read-out and setting: in the case of `CC(C)c1cc(Cl)c(F)c(C2CC2)c1CC(=O)N=S(N)(=O)c1sc(C(C)(C)O)cc1F` (stereo not shown) [Example 20, 2-(4-chloro-2-cyclopropyl-3-fluoro-6-isopropylphenyl)-N-(3-fluoro-5-(2-hydroxypropan-2-yl)thiophen-2-ylsulfonimidoyl)acetamide] it was 200 to 1000 nM; in that of `CC(C)c1cc(OC(F)F)cc(C(C)C)c1CC(=O)N=S(N)(=O)c1sc(C(C)(C)O)cc1F` (stereo not shown) [Example 21, 2-(4-(difluoromethoxy)-2,6-diisopropylphenyl)-N-(3-fluoro-5-(2-hydroxypropan-2-yl)thiophen-2-ylsulfonimidoyl)acetamide], 40 to 200 nM. As for `CC(C)c1cc(C#N)cc(C(C)C)c1CC(=O)N=S(N)(=O)c1sc(C(C)(C)O)nc1CO` (stereo not shown) [Example 22, 2-(4-cyano-2,6-diisopropylphenyl)-N-(4-(hydroxymethyl)-2-(2-hydroxypropan-2-yl)thiazol-5-ylsulfonimidoyl)acetamide], the IC50 (class symbols) was in the range of 200 to 1000 nM. Consider `CC(C)(O)c1nc(CO)c(S(N)(=O)=NC(=O)Cc2c3c(cc4c2CCC4)CCC3)s1` (stereo not shown) [Example 23, 2-(1,2,3,5,6,7-hexahydros-indacen-4-yl)-N-(4-(hydroxymethyl)-2-(2-hydroxypropan-2-yl)thiazol-5-ylsulfonimidoyl)acetamide], for which, for the setting “class symbols”, the half-maximal inhibitory concentration (IC50) lay within 1000 to 5000 nM. For the compound `COCc1cc(C(C)C)c(CC(=O)N=S(N)(=O)c2sc(C(C)(C)O)nc2CO)c(C(C)C)c1` (stereo not shown) [Example 24, 2-(2,6-diisopropyl-4-(methoxymethyl)phenyl)-N-(4-(hydroxymethyl)-2-(2-hydroxypropan-2-yl)thiazole-5-sulfonimidoyl)acetamide], where the note is “class symbols”, the half-maximal inhibitory concentration (IC50) is 200 to 1000 nM. The same measure, in the same setting: then `CC(C)c1cc(C#N)cc(C2CC2)c1CC(=O)N=S(N)(=O)c1sc(C(C)(C)O)nc1CO` (stereo not shown) [Example 25, 2-(4-cyano-2-cyclopropyl-6-isopropylphenyl)-N-(4-(hydroxymethyl)-2-(2-hydroxypropan-2-yl)thiazole-5-sulfonimidoyl)acetamide], with 1000 to 5000 nM; and `Cc1cc(CN(C)C)ccc1S(N)(=O)=NC(=O)Cc1c(C(C)C)cc(OC(F)F)cc1C1CC1` (stereo not shown) [Example 26, 2-(2-cyclopropyl-4-(difluoromethoxy)-6-isopropylphenyl)-N-(4-((dimethylamino)methyl)-2-methylphenylsulfonimidoyl) acetamide], with 1000 to 5000 nM. Consider `CC(C)c1cc(OC(F)F)cc(C(C)C)c1CC(=O)N=S(N)(=O)c1ccc(CN(C)C)cc1` (stereo not shown) [Example 27, 2-(4-(difluoromethoxy)-2,6-diisopropylphenyl)-N-(4-((dimethylamino)methyl)phenyl-sulfonimidoyl)acetamide], for which, for the setting “class symbols”, the half-maximal inhibitory concentration (IC50) was 1000 to 5000 nM. For the compound `CC(C)c1cc(C#N)cc(C(C)C)c1CC(=O)N=S(N)(=O)c1ccc(CN(C)C)cc1` (stereo not shown) [Example 28, 2-(4-cyano-2,6-diisopropylphenyl)-N-(4-((dimethylamino)methyl)phenyl-sulfonimidoyl)acetamide], the IC50 (class symbols) was in the range of 1000 to 5000 nM.

Take `CC(C)c1cc(C#N)cc(C2CC2)c1CC(=O)N=S(N)(=O)c1ccc(CN(C)C)cc1` (stereo not shown) [Example 29, 2-(4-cyano-2-cyclopropyl-6-isopropylphenyl)-N-(4-((dimethylamino)methyl)phenyl-sulfonimidoyl)acetamide]: for the setting “class symbols”, the IC50 was in the range of 5000 to 30000 nM. As for `CCc1cc(C#N)cc(C(C)C)c1CC(=O)N=S(N)(=O)c1ccc(CN(C)C)cc1` (stereo not shown) [Example 30, 2-(4-cyano-2-ethyl-6-isopropylphenyl)-N-(4-((dimethylamino)methyl)phenyl-sulfonimidoyl)acetamide], the IC50 (class symbols) lay in the range of 5000 to 30000 nM.

For `CC(C)c1cc(F)cc(C2CC2)c1CC(=O)N=S(N)(=O)c1ccc(CN(C)C)cc1F` (stereo not shown) [Example 31, 2-(2-cyclopropyl-4-fluoro-6-isopropylphenyl)-N-(4-((dimethylamino)methyl)-2-fluorophenylsulfonimidoyl) acetamide], the IC50 (class symbols) is 1000 to 5000 nM.

Regarding `CC(C)c1cc(C#N)cc(C2CC2)c1CC(=O)N=S(N)(=O)c1ccc(CN(C)C)cc1F` (stereo not shown) [Example 32, 2-(4-cyano-2-cyclopropyl-6-isopropylphenyl)-N-(4-((dimethylamino)methyl)-2-fluorophenylsulfonimidoyl) acetamide], for the setting “class symbols”, the half-inhibitory concentration (IC50) was 5000 to 30000 nM. As for `CC(C)c1cc(C(F)F)cc(C(C)C)c1CC(=O)N=S(N)(=O)c1ccc(C(C)(C)O)cc1F` (stereo not shown) [Example 33, 2-(4-(difluoromethyl)-2,6-diisopropylphenyl)-N-(2-fluoro-4-(2-hydroxypropan-2-yl)phenylsulfonimidoyl)acetamide], the concentration for half-maximal inhibition (IC50) (class symbols) lay within 200 to 1000 nM. For the compound `CC(C)c1cc(C#N)cc(C(C)C)c1CC(=O)N=S(N)(=O)c1ccc(C(C)(C)O)cc1Cl` (stereo not shown) [Example 34, N-(2-chloro-4-(2-hydroxypropan-2-yl)phenylsulfonimidoyl)-2-(4-cyano-2,6-diisopropylphenyl)acetamide], the IC50 (class symbols) was 1000 to 5000 nM. With `CC(C)c1cc(C(F)F)cc(C(C)C)c1CC(=O)N=S(N)(=O)c1ccc(CN(C)C)cc1F` (stereo not shown) [Example 35, 2-(4-(difluoromethyl)-2,6-diisopropylphenyl)-N-(4-((dimethylamino)methyl)-2-fluorophenylsulfonimidoyl) acetamide], the IC50 (class symbols) was in the range of 200 to 1000 nM.

On to `CCc1cc(OC(F)F)cc(C(C)C)c1CC(=O)N=S(N)(=O)c1sc(C(C)(C)O)cc1F` (stereo not shown) [Example 36, 2-(4-(difluoromethoxy)-2-ethyl-6-isopropylphenyl)-N-(3-fluoro-5-(2-hydroxypropan-2-yl)thiophene-2-sulfonimidoyl)acetamide], for which the IC50 (class symbols) is 200 to 1000 nM. Take `CC(C)c1cc(C(F)F)cc(C(C)C)c1CC(=O)N=S(N)(=O)c1sc(C(C)(C)O)cc1F` (stereo not shown) [Example 37, 2-(4-(difluoromethyl)-2,6-diisopropylphenyl)-N-(3-fluoro-5-(2-hydroxypropan-2-yl)thiophene-2-sulfonimidoyl)acetamide]: the concentration for half-maximal inhibition (IC50) (class symbols) was in the range of 40 to 200 nM.

For the compound `CC(C)c1cc(C#N)cc(C(C)C)c1CC(=O)N=S(N)(=O)c1ncc(C(C)(C)O)s1` (stereo not shown) [Example 38, 2-(4-cyano-2,6-diisopropylphenyl)-N-(5-(2-hydroxypropan-2-yl)thiazole-2-sulfonimidoyl)acetamide], the 50% inhibitory concentration (IC50) (class symbols) was in the range of 200 to 1000 nM. As to `Cc1nc(C(C)(C)O)sc1S(N)(=O)=NC(=O)Cc1c(C(C)C)cc(OC(F)F)cc1C(C)C` (stereo not shown) [Example 39, 2-(4-(difluoromethoxy)-2,6-diisopropylphenyl)-N-(2-(2-hydroxypropan-2-yl)-4-methylthiazole-5-sulfonimidoyl)acetamide], the 50% inhibitory concentration (IC50) (class symbols) was 200 to 1000 nM. Take `Cc1nc(C(C)(C)O)sc1S(N)(=O)=NC(=O)Cc1c(C(C)C)cc(C#N)cc1C(C)C` (stereo not shown) [Example 40, 2-(4-cyano-2,6-diisopropylphenyl)-N-(2-(2-hydroxypropan-2-yl)-4-methylthiazole-5-sulfonimidoyl)acetamide]: the half-maximal inhibitory concentration (IC50) (class symbols) is 200 to 1000 nM.

In general, IC50 refers to the concentration needed to halve the response being measured.
